Measured values: patent US20060019400A1, “Method for the determination of glucuronides in physiological samples” (University of Maryland, priority 2004, published 2006)

How the values were obtained:
[1] = after alcohol consumption; cited from earlier work
[2] = Ethyl glucuronide levels in postmortem urine by SPE and HPLC-PED; design: species or system human; details: in vivo
Procedure: A ternary gradient solvent delivery pump 106 (Model 8800; Spectra Physics, Mountain View, Calif.) equipped with mixing chamber 104 and on-line degasser unit 102 (Model KT-35M; Shodex, Clear Brook, Va.) were used to provide solvent delivery to analytical column 110. In certain embodiments, isocratic separations are performed using a 1% acetic acid/water:acetonitrile (98:2, v/v) mobile phase set to a flow rate of 1.0 mL ? min-1. Injection valve 108 (Model 7010; Rheodyne, Rohnert Park, Calif.) is fitted with a 50 μL injection loop. Separations can be performed using any suitable analytical column, selected based upon the glucuronide(s) of interest. For example, a reversed-phase (C18; 250×4.6 mm, 5 μm, 100 Å) Denali column (Vydac, Columbia, Md.) with guard column (C18; 7.5×4.6 mm, 5 μm; Vydac) can be used, or a bonded-phase silica column comprising a C18 functional group bonded to its surface using a sulfonamide group coupled to an ether linkage (DIONEX® PA column, DIONEX®, Sunnyvale, Calif.) can be used. Post-column addition of NaOH 112 (for example, 600 mM NaOH), necessary to promote PED-activity, was accomplished by a reagent delivery module (RDM, Dionex, Sunnyvale, Calif.). […]
All urine samples (1.0 mL) were pretreated with 100 μL of 3 M HCl and 3 mL acetonitrile. […] The reconstituted solution was diluted further to bring EtG within the linear range of quantitation. […]

## CCO[C@@H]1O[C@H](C(=O)O)[C@@H](O)[C@H](O)[C@H]1O [EtG, Ethyl glucuronide]
[1]
  period of detection after the complete elimination of alcohol from the body: up to 80 h
[2]
  EtG levels in postmortem samples: 3 to 700 µg/mL
